Results on one compound are retold here after patent US11154063B2, “Method for producing a bacteriostatic and fungistatic additive in masterbatch for application in plastics” (SERVICIOS ADMINISTRATIVOS PEÑOLES, S.A. DE C.V., priority 2013, dated 2021).

The assay relates to S. aureus. The assay can be described thus: Inhibition in RP 340 polypropylene copolymer after aging in UV chamber. The format is cell-based. The conditions noted are these: after 120 h of aging in UV chamber.

In the case of `Oc1cc(Cl)ccc1Oc1ccc(Cl)cc1Cl` [triclosan], the “After 120 h of aging Inhibition %.” value is reported as “starts decreasing its antimicrobial effectiveness”.
